System: A498
Experiment: Cell culture and GI50 determination (resazurin)
Type: cell-based
Conditions: Homo sapiens, A498, 48h incubation
Procedure: MDA-MB-231 (breast cancer) and KM12 (colon cancer) cells obtained from the UZH Cancer Institute, HOP-92 (lung cancer) cells purchased from the National Cancer Institute (NCl) and A498 (kidney cancer) cells obtained from Prof. Krek (Institute of Cell Biology, ETH Zurich) were cultured in Dulbecco's modified Eagle's medium (DMEM) supplemented with 10% (v/v) fetal bovine serum. K562 leukemia cells obtained from Dr. Silvio Hemmi (Institute of Molecular Life Sciences, UZH) were cultured using RPMI medium supplemented with 5% (v/v) fetal bovine serum. All the media was additionally supplemented with 100 units/mL of penicillin, 100µg/mL of streptomycin, 4.5 g/L glucose, 0.11g/L sodium pyrubate and 2mM glutamine and the cells were grown at 37 °C in 5% CO2 atmosphere with 80% relative humidity.
MDA-MB-231, HT-29, KM12, HOP-92 and A498 cells were plated at 10,000 cells per well (100 µL per well) in 96-well culture dishes and allowed to incubate for 24 h. The old media was removed, the cells were washed with PBS (phosphate-buffered saline) and fresh media was added. A 5 mmol/L solution of inhibitor (in 100% DMSO) was serially diluted in the culture media (12 different concentrations were used) and allowed to incubate for 72 h (MDA-MB-231) or 48h (A498). Control cells were treated with the same DMSO concentrations. After the incubation period the media was once more removed and the cells were washed with PBS to then be incubated with fresh media containing 86 nmol/L resazurin. After 3 hours, the fluorescence was quantified using a fluorescence microplate reader (Biotek, FLx800™) at the respective excitation and emission wavelength of 560 and 590 nm. Resazurin becomes fluorescent under mitochondrial reduction and its emission directly correlates with the metabolic stability of the cells. The measured fluorescence values were corrected from the control samples containing DMSO and GI50 values were determined by plotting the fraction of metabolically active cells against the log of the drug concentration. All measurements were performed at least in triplicate.

For `COc1ccc(C)c(-n2c(N)c(C(N)=O)c3nc4ccccc4nc32)c1` [Compound 8, 2-Amino-1-(5-methoxy-2-methylphenyl)-1H-pyrrolo[2,3-b]quinoxaline-3-carboxamide, reference compound], the GI50 was 59.3 µM.

— EP2924040A1, “2-Amino-1-(o-tolyl)pyrrolo[3,2-b]quinoxaline-3-carboxamide derivates” (Universität Zürich, priority 2014, dated 2015)
